Measurements from ChEMBL document CHEMBL4342466, “Novel, Self-Assembling Dimeric Inhibitors of Human β Tryptase” (J Med Chem, 2020).

Key:
[1] = Inhibition of beta-tryptase in human HMC1 cells assessed as effect on A23187-induced degranulation; assay type: cell-based
Homo sapiens = species on record: Homo sapiens; assay: Inhibition of human recombinant beta-tryptase assessed as remaining enzyme activity at 10 uM pre-incubated for 3 hrs before N-tert-butoxycarbonyl-Gln-Ala-Arg-AMC substrate addition and measured after 8 hrs by spectrometry relative to control
[2] = Inhibition of beta-tryptase in human HMC1 cells assessed as effect on tryptase activity by measured cell lysis; assay type: cell-based
[3] = Apparent permeability from apical to basolateral side in MDCK cells; assay type: ADME, cell-based, Canis lupus familiaris; details: dog
CYP2D6 = CYP2D6 (Homo sapiens, UniProt P10635); assay: Inhibition of CYP2D6 (unknown origin) at 10 uM relative to control; assay type: ADME
[4] = Effective permeability assessed as mass retention by PAMPA method; assay type: ADME
CYP2C19 = CYP2C19 (Homo sapiens, UniProt P33261); assay: Inhibition of CYP2C19 (unknown origin) at 10 uM relative to control; assay type: ADME
[5] = Dissociation constant, pKa of the compound (NH3*) by pH metric assay; assay type: physicochemical
[6] = Stability in human liver microsomes assessed as parent compound remaining at 15 uM in presence of NADPH incubated for 60 mins; assay type: ADME, Microsome; details: liver microsomes, read-out: Stability
[7] = Dissociation constant, pKa of the compound (OH) by UV metric assay; assay type: physicochemical
[8] = Dissociation constant, pKa of the compound (OH) by pH metric assay; assay type: physicochemical
[9] = Stability in mouse liver microsomes assessed as parent compound remaining at 15 uM in absence of NADPH incubated for 60 mins; assay type: ADME, Microsome; details: read-out: Stability
[10] = Inhibition of human recombinant beta-tryptase pre-incubated for 3 hrs before N-tert-butoxycarbonyl-Gln-Ala-Arg-AMC substrate addition and measured every 30 secs for 15 mins by spectrometry
[11] = Effective permeability from apical to basolateral side in PAMPA method; assay type: ADME; details: read-out: Peff
[12] = Stability in human liver microsomes assessed as parent compound remaining at 15 uM in absence of NADPH incubated for 60 mins; assay type: ADME, Microsome; details: liver microsomes, read-out: Stability
CYP3A4 = CYP3A4 (Homo sapiens, UniProt P08684); assay: Inhibition of CYP3A4 (unknown origin) at 10 uM relative to control; assay type: ADME
[13] = Stability in mouse liver microsomes assessed as parent compound remaining at 15 uM in presence of NADPH incubated for 60 mins; assay type: ADME, Microsome; details: read-out: Stability
CYP1A2 = molecular target: T1, CYP1A2 (Homo sapiens, UniProt P05177); assay: Inhibition of CYP1A2 (unknown origin) at 10 uM relative to control; assay type: ADME
T1 sequence (P05177 whole entry): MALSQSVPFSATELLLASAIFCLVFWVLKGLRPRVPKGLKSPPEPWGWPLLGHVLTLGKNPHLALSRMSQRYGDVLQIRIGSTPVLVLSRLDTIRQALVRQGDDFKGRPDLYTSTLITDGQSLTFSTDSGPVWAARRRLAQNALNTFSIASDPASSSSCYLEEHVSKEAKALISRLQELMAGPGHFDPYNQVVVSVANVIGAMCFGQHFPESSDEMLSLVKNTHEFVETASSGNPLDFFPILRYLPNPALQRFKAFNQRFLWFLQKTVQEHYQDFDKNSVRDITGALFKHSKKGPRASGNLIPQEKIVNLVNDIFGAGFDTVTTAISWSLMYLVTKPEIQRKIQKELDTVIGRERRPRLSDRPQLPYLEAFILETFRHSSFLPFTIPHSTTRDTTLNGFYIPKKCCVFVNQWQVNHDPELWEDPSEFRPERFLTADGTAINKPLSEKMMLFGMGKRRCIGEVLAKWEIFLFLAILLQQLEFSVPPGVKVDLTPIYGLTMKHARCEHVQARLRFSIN

CYP2C9 = CYP2C9 (Homo sapiens, UniProt P11712); assay: Inhibition of CYP2C9 (unknown origin) at 10 uM relative to control; assay type: ADME
[14] = Stability in rat liver microsomes assessed as parent compound remaining at 15 uM in absence of NADPH incubated for 60 mins; assay type: ADME, Microsome; details: read-out: Stability
[15] = Stability in rat liver microsomes assessed as parent compound remaining at 15 uM in presence of NADPH incubated for 60 mins; assay type: ADME, Microsome; details: read-out: Stability
[16] = Drug concentration in tumor of mouse xenografted with human HMC1 cells at 10 mg/kg, iv dosed at time 0 and again 24 hrs later and measured at 0 hrs after second dose by LC-MS/MS analysis; assay type: ADME, organism-based, Neoplasm; details: read-out: Drug uptake
[17] = Plasma concentration in mouse xenografted with human HMC1 cells at 10 mg/kg, iv dosed at time 0 and again 24 hrs later and measured at 8 hrs after second dose by LC-MS/MS analysis; assay type: ADME, organism-based
[18] = Drug concentration in tumor of mouse xenografted with human HMC1 cells at 10 mg/kg, iv dosed at time 0 and again 24 hrs later and measured at 24 hrs after second dose by LC-MS/MS analysis; assay type: ADME, organism-based, Neoplasm; details: read-out: Drug uptake
[19] = Plasma concentration in mouse xenografted with human HMC1 cells at 10 mg/kg, iv dosed at time 0 and again 24 hrs later and measured at 2 hrs after second dose by LC-MS/MS analysis; assay type: ADME, organism-based
[20] = Drug concentration in tumor of mouse xenografted with human HMC1 cells at 10 mg/kg, iv dosed at time 0 and again 24 hrs later and measured at 2 hrs after second dose by LC-MS/MS analysis; assay type: ADME, organism-based, Neoplasm; details: read-out: Drug uptake
[21] = Plasma concentration in mouse xenografted with human HMC1 cells at 10 mg/kg, iv dosed at time 0 and again 24 hrs later and measured at 24 hrs after second dose by LC-MS/MS analysis; assay type: ADME, organism-based
[22] = Drug concentration in tumor of mouse xenografted with human HMC1 cells at 10 mg/kg, iv dosed at time 0 and again 24 hrs later and measured at 8 hrs after second dose by LC-MS/MS analysis; assay type: ADME, organism-based, Neoplasm; details: read-out: Drug uptake
[23] = Plasma concentration in mouse xenografted with human HMC1 cells at 10 mg/kg, iv dosed at time 0 and again 24 hrs later and measured at 0 hrs after second dose by LC-MS/MS analysis; assay type: ADME, organism-based
[24] = Drug concentration in tumor of mouse xenografted with human HMC1 cells at 10 mg/kg, iv dosed at time 0 and again 24 hrs later and measured at 48 hrs after second dose by LC-MS/MS analysis; assay type: ADME, organism-based, Neoplasm; details: read-out: Drug uptake

CYP2C19, sequence (P33261 whole entry): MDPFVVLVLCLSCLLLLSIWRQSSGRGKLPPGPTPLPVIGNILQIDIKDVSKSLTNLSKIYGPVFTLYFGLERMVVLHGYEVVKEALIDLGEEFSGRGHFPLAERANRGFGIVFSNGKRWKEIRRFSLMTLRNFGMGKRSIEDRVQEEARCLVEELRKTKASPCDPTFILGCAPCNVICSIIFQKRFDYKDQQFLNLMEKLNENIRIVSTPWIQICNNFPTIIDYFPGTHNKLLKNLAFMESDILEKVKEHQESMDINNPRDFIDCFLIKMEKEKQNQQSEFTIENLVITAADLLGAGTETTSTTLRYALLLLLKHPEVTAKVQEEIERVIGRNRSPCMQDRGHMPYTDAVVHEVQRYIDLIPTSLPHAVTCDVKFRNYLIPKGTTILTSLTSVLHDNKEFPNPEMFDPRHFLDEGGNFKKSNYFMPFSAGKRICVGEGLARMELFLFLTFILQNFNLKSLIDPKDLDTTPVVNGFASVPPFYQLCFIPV
CYP3A4, sequence (P08684 whole entry): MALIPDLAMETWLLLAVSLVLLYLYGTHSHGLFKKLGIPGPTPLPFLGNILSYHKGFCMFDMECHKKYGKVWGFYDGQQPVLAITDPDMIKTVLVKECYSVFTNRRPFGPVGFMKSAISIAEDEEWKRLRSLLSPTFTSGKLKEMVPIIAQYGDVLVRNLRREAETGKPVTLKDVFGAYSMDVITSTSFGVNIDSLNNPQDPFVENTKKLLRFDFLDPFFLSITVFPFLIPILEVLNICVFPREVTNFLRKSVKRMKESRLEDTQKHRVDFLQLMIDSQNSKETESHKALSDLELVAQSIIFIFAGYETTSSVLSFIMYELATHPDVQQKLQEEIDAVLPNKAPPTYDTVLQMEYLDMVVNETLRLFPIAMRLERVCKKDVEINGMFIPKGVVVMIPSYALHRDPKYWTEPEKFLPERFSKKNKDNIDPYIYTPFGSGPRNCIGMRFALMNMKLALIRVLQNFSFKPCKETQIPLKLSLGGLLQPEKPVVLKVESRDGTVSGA
CYP2D6, sequence (P10635 whole entry): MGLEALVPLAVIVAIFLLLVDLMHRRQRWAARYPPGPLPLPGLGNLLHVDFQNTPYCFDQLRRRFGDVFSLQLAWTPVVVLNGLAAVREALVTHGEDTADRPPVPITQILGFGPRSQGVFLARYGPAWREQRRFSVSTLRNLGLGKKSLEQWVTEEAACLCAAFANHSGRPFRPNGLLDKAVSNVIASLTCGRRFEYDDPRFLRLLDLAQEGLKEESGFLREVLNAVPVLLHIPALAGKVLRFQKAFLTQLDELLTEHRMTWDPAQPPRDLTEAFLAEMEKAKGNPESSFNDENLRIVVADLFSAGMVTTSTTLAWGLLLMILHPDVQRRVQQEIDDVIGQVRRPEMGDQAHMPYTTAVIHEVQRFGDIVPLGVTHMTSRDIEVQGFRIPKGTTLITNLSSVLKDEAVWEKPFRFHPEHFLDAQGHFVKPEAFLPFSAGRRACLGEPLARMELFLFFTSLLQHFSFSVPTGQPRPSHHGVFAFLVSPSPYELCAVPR
CYP2C9, sequence (P11712 whole entry): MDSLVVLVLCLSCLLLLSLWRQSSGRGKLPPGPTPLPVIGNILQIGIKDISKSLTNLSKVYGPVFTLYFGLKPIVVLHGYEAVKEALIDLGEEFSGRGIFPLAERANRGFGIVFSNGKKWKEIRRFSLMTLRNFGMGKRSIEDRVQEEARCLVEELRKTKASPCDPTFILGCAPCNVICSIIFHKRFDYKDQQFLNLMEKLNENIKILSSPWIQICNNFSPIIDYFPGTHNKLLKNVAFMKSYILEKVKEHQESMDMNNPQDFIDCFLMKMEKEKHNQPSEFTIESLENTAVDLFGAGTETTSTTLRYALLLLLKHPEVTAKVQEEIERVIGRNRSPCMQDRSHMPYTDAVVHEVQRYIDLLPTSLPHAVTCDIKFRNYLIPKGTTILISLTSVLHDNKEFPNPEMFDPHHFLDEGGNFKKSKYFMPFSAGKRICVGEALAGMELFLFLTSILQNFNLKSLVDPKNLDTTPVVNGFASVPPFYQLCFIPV

NCc1ccc2c(c1)C1(CCN(C(=O)c3cccc(-c4cccc(B5Oc6cc(C(=O)N7CCC8(CC7)COc7ccc(CN)cc78)cc(Cl)c6O5)c4)c3)CC1)CO2
IC50 [1]: 0.24 µM
Activity (Homo sapiens): 50%
IC50 [2]: 5.45 µM

NCc1cccc(C2CCN(C(=O)/C=C/c3ccc(O)c(O)c3)CC2)c1
Papp A→B [3]: 0.31 ×10⁻⁶ cm/s
inhibition at 10 µM (CYP2D6): 47%
Activity [4]: 26.3%
inhibition at 10 µM (CYP2C19): 77%
pKa [5]: 9.67
remaining at 1 h, 15 µM [6]: 8%
pKa [7]: 7.37
pKa [8]: 8.11
remaining at 1 h, 15 µM [9]: 36%
IC50 [10]: 3.84 µM
Papp [11]: 0.01 ×10⁻⁶ cm/s
remaining at 1 h, 15 µM [12]: 11%
inhibition at 10 µM (CYP3A4): 19%
remaining at 1 h, 15 µM [13]: 18%
inhibition at 10 µM (CYP1A2): 18%
inhibition at 10 µM (CYP2C9): 75%
remaining at 1 h, 15 µM [14]: 73%
remaining at 1 h, 15 µM [15]: 37%

NCc1ccc2c(c1)C1(CCN(C(=O)c3cccc(-c4cccc(B(O)O)c4)c3)CC1)CO2.O=C(O)C(F)(F)F
concentration at 0 h [16]: 27.9 nM
concentration at 8 h [17]: 43 nM
concentration at 24 h [18]: 2.14 nM
concentration at 2 h [19]: 1290 nM
concentration at 2 h [20]: 554 nM
concentration at 24 h [21]: 0.14 nM
concentration at 8 h [22]: 107 nM
concentration at 0 h [23]: 0.53 nM
concentration at 48 h [24]: 0.56 nM
